From article PMC11969138, “LNS8801: An Enantiomerically Pure Agonist of the G Protein–Coupled Estrogen Receptor Suitable for Clinical Development” (Cancer Research Communications, 2025) come the findings set out here.

Holding throughout (experiment): Eurofins DiscoverX SAFETYscan off-target panel
Holding throughout (assay type): cell-based

Assay [1] deals with OPRM1 (Homo sapiens, UniProt P35372).
In assay [2] the target is OPRD1 (Homo sapiens, UniProt P41143).
For assay [3], the target named is HTR2A (Homo sapiens, UniProt P28223).
Assay [4] has as its target T1, HTR1A (Homo sapiens, UniProt P08908).
T1 sequence (P08908 1-422): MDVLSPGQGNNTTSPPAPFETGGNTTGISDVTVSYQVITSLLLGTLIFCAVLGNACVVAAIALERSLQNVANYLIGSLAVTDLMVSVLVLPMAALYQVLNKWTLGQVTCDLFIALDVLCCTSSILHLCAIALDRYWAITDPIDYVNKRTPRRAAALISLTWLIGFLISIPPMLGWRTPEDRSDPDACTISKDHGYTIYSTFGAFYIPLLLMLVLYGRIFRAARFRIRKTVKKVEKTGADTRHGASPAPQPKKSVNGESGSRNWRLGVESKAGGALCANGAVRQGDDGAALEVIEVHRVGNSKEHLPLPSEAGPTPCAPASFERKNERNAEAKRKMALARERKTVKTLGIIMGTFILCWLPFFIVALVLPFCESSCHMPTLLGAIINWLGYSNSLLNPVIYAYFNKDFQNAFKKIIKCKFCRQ

The target in assay [5] is T2, ADRA2A (Homo sapiens, UniProt P08913).
T2 sequence (P08913 1-465): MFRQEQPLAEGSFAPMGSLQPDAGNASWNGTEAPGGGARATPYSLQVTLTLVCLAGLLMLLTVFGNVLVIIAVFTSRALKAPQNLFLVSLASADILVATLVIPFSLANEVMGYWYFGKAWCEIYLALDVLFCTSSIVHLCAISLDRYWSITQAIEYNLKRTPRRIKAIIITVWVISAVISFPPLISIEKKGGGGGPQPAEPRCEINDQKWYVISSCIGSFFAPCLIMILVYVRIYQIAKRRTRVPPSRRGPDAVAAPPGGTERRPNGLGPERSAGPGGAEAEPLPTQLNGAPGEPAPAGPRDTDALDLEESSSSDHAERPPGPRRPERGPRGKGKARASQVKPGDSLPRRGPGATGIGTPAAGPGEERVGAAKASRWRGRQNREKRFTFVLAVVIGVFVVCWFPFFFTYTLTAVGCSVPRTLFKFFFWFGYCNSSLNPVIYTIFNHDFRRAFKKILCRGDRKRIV

For assay [6], the target named is T3, androgen receptor (AR) (Homo sapiens, UniProt P10275).
T3 sequence (P10275 1-920): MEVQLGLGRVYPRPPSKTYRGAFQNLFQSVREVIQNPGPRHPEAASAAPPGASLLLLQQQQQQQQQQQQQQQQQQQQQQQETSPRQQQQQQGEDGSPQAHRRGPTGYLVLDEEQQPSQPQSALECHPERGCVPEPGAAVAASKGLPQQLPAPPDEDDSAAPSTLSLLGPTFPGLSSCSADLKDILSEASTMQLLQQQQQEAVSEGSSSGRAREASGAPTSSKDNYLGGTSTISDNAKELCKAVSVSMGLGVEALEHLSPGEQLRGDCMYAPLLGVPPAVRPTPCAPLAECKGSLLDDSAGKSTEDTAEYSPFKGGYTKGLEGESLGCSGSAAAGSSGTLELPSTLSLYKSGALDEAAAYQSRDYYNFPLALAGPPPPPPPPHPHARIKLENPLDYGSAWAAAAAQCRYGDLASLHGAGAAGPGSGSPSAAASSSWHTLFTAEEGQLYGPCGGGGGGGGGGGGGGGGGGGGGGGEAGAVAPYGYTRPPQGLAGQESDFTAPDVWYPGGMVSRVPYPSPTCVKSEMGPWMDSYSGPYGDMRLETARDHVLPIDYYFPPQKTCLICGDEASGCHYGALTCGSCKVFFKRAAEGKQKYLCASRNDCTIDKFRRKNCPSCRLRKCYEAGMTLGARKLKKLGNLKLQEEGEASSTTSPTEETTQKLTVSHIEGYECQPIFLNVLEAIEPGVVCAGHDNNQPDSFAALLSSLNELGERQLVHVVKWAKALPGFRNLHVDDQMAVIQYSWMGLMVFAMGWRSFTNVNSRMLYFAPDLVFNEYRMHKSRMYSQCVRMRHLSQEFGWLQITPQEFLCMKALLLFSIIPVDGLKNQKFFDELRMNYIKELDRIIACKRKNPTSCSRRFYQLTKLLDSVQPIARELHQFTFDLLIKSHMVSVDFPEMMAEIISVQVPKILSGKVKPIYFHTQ

Chain of OPRD1 (P41143 whole entry): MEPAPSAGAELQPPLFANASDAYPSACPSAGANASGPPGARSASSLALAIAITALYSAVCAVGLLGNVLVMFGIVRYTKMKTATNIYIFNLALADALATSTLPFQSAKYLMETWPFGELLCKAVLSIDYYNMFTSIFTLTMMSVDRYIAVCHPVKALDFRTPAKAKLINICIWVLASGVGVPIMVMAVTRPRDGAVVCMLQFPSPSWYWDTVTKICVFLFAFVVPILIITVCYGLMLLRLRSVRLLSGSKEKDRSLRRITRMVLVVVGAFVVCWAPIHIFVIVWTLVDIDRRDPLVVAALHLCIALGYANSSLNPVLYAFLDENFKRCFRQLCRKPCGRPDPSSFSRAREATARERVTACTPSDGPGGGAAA
Chain of OPRM1 (P35372 whole entry): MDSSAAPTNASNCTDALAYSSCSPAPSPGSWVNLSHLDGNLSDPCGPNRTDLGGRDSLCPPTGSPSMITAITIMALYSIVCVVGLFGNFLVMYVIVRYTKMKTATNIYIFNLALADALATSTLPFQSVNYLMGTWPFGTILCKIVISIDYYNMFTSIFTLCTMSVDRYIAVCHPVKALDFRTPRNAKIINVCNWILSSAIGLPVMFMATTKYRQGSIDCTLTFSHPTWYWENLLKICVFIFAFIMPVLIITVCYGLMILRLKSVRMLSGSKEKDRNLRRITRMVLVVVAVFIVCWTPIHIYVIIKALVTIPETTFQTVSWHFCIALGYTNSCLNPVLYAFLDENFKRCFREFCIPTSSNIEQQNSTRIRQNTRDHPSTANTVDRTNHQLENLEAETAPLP
Chain of HTR2A (P28223 whole entry): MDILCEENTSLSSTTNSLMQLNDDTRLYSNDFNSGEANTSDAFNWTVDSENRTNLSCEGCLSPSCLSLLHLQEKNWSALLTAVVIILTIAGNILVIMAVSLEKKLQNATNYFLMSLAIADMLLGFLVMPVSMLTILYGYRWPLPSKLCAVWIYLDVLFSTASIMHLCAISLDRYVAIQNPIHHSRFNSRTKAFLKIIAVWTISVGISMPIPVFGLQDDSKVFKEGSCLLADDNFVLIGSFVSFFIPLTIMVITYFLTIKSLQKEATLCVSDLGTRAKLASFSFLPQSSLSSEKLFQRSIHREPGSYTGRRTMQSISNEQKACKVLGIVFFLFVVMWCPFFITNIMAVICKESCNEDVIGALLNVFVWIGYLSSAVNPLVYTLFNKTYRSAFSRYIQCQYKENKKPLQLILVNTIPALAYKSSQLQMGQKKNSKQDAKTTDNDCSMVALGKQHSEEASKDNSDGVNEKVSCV

As for `CC(=O)c1ccc2c(c1)[C@@H]1C=CC[C@@H]1[C@H](c1cc3c(cc1Br)OCO3)N2` (racemic) [LNS8801, 1-[(3aS,4R,9bR)-4-(6-bromo-1,3-benzodioxol-5-yl)-3a,4,5,9b-tetrahydro-3H-cyclopenta[c]quinolin-8-yl] ethanone], the IC50 in assay [1] was found to be 3500 nM; in assay [3], 8200 nM. The EC50 in assay [2] was 870 nM.
Consider `CC(=O)c1ccc2c(c1)C1C=CCC1C(c1cc3c(cc1Br)OCO3)N2` (racemic) [LNS8812], for which the values for the 50% inhibitory concentration (IC50) in assay [4], in assay [5] and in assay [6] were 2000 nM, 2000 nM and 4800 nM, respectively.
